System: histamine H2 -receptors
Assay: inhibition of histamine-stimulated secretion of gastric acid from the lumen-perfused stomachs of rats anaesthetised with urethane
Format: in vivo
Conditions: i.v., lumen-perfused stomach of urethane-anaesthetised rats

N=C(N)Nc1nc(CSCCNC2=C([N+](=O)[O-])CCCN2)cs1 [Example 1, 2-[2-(2-Guanidino-4-thiazolylmethylthio)ethylamino-]-3-nitro-1,4,5,6-tetrahydropyridine]
dose causing 50% inhibition of maximal acid secretion: less than 0.1 micromole kh^-1

Reference: patent publication US4307104A, “Guanidine compounds” (Smith Kline & French Laboratories Limited, priority 1979, dated 1981)
